Measurements published in patent US6566081B1, “Methods of identifying a compound which modulates the non-transcriptional non-map-kinase induced effects of steroid hormones” (The Brigham and Women's Hospital, Inc., priority 1999, dated 2003).

Columns and labels:
[1] = system: mouse cremaster muscle venules; experiment: Model of vascular injury: ischemia and reperfusion in the mouse cremaster muscle (leukocyte rolling and adhesion); assay type: in vivo; details: wortmannin 100 nM or L-NAME 0.1 mM during ischemia
Protocol: (§1) Mice were anesthetized and the cremaster muscle was studied under intravital microscopy^28. Ischemia was induced by applying pressure to supplying arteries just sufficient to stop blood flow for 30 min. In some experiments, wortmannin (100 nM) or L-NAME (0.1 mM) was applied to the cremaster muscle during the ischemic period. The pressure was released for reperfusion, and the same vessels were recorded in each animal before and after I/R. The rolling velocities of 25 leukocytes were measured in each venule; sorted and averaged for each rank to construct cumulative histograms. The velocities of 3,750 leukocytes were measured in 150 venules before and after I/R. The number of firmly adherent leukocytes was measured before and after I/R in the same 200 μm long segments of venules.

eNOS = target: T1, eNOS (Mus musculus, UniProt P70313); experiment: Cremaster eNOS activity in mice; assay type: in vivo; details: L-NAME 0.1 mM, E2-treated mice
T1 construct: from tissue; host or cells: cremaster muscle of male C57BL/6 mice
Protocol: as §1, with “venules. The following number of venules were studies for leukocyte adhesion: Untreated, 15 venules; E2-treated, 20 venules; E2-treated with wortmannin, 25 venules; E2-treated with L-NAME, 15 venules. Cremaster eNOS activity was measured in 3 untreated, 4 E2-treated, 5 E2-treated with wortmannin, and 4 E2-treated with L-NAME mice.” for “venules.”

ERα-p85α interaction = target: T2, ERα-p85α interaction (Homo sapiens, UniProt P03372); experiment: GST fusion protein-affinity purification (GST-p85α and recombinant ERα, cell-free); assay type: binding; details: recombinant ERα, Hsp90 0.5 μg
T2 construct: purchased Panvera (ERα)
Protocol: Human recombinant GST-p85α fusion protein or GST (Sigma, St. Louis, Mo.) bound to glutathione-agarose beads (1 μg protein/20 μL beads) were suspended in 400 μL of E. Coli protein extract solution (10 mg/mL) and incubated with 1 μg human recombinant ERα (Panvera, Madison, Wis.) for 1 h at 4° C. The samples were pelleted, and the beads were washed 5 times with a buffer containing 50 mM potassium phosphate, pH 7.5, 150 mM KCl, 1 mM MgCl2, 10% (v/v) glycerol, 1% (v/v) Triton X-100 plus protease inhibitors. The beads were re-suspended in 50 μL of 2×Laemmli's buffer and boiled for 5 min. Proteins were separated on SDS-polyacrylamide gel electrophoresis.

T2 sequence (P03372 whole entry, the tested form may be a part): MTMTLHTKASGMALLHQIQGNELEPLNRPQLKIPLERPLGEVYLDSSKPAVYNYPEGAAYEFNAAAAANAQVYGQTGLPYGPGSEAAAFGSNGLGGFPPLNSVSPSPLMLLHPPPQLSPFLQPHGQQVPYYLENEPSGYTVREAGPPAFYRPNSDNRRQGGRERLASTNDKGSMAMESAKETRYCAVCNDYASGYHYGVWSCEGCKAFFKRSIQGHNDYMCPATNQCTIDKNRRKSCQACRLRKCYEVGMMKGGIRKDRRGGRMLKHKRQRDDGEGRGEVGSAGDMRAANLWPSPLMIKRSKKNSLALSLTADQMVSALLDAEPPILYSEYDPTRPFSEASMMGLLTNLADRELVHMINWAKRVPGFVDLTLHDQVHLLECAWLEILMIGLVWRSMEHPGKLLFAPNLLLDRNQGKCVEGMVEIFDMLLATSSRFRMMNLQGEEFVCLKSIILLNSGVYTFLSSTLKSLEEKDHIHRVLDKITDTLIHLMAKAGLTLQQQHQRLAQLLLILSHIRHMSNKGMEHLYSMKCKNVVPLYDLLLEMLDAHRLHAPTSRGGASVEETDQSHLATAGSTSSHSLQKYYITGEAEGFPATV
T2 sequence (P27986 whole entry partner, the tested form may be a part): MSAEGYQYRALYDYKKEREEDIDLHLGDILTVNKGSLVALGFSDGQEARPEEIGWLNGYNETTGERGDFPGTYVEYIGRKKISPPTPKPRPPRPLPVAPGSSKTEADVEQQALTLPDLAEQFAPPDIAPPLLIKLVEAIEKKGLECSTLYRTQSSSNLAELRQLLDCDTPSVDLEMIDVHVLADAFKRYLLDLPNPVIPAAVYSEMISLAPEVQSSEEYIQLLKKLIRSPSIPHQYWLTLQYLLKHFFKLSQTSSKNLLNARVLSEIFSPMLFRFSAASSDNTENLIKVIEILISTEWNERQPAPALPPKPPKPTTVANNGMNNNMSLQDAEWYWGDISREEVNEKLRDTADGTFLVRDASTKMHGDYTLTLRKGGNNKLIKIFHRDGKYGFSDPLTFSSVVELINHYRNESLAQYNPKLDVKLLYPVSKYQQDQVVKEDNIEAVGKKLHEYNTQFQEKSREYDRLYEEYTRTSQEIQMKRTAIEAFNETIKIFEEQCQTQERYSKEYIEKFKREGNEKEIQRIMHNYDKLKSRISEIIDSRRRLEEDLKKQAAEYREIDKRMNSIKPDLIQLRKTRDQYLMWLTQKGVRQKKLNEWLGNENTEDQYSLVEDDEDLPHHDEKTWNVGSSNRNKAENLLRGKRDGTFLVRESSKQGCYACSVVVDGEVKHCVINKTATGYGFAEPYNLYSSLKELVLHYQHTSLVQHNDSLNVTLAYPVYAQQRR
T1 sequence (P70313 2-1202): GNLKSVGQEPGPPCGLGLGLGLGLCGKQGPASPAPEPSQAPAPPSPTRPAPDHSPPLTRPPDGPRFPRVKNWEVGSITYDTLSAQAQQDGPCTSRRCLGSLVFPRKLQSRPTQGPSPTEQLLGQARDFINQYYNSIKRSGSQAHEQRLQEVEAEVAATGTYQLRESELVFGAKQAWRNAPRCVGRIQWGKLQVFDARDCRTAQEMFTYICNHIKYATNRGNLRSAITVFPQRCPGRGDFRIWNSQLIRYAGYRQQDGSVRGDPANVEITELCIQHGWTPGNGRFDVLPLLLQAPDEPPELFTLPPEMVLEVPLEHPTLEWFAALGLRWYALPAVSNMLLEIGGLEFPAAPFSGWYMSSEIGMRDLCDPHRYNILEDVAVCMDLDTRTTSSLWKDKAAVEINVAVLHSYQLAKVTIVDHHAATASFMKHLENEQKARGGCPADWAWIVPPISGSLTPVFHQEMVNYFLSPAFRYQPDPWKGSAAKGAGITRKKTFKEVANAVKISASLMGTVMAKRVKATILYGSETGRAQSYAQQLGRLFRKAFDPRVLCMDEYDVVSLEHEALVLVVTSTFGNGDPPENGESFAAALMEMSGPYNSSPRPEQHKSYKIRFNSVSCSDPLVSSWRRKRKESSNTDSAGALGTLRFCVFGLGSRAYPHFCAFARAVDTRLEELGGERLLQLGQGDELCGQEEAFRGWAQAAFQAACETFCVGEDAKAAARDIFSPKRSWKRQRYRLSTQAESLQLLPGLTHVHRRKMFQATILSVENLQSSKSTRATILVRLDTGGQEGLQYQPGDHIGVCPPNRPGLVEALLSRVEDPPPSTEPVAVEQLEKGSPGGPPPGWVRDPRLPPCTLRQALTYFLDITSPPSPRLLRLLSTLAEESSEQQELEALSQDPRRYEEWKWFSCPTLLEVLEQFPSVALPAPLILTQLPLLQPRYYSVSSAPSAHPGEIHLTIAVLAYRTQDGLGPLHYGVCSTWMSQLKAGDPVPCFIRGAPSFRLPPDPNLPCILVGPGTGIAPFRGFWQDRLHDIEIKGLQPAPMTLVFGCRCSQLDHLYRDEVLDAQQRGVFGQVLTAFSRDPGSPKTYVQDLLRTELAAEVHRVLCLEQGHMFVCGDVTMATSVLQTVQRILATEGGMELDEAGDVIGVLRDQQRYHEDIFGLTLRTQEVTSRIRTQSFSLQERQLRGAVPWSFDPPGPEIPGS

| Compound | leukocyte rolling velocity and accumulation, untreated vs E2-treated mice following I/R, with inhibitor applied to the cremaster muscle [1] | effect of applied inhibitor on cremaster eNOS activity (eNOS) | effect on interaction of ERα and p85α (ERα-p85α interaction) | effect on interaction of ERα and p85α (ERα-p85α interaction; listed as Hsp90) |
| --- | --- | --- | --- | --- |
| COC(=O)[C@@H](N)CCCNC(=N)N[N+](=O)[O-] [L-NAME, L-nitroarginine methylester] | not different | decreased eNOS activity below that of untreated mice |  |  |
| Heat shock protein 90: heat shock protein that binds and facilitates the function of ER and eNOS |  |  | inhibited | inhibits |
